From patent US11613542B2, “Sulfonylureas and sulfonylthioureas as NLRP3 inhibitors” (Inflazome Limited, priority 2017, dated 2023)
Counter-ions that a name gives are not always drawn.

Legend:
[1] = target: T1, NLRP3 (Homo sapiens, UniProt Q96P20); assay: THP-1 cells pyroptosis assay; assay type: cell-based; design: Seed THP-1 cells (25,000 cells/well) containing 1.0 μg/ml LPS; host or cells: THP-1 cells, LPS-primed, nigericin-stimulated; conditions: THP-1 cells, 1.0 μg/ml LPS, compound 3 hrs, nigericin 5 μM 1 hr, resazurin readout; read-out: THP IC50
T1 sequence (Q96P20 whole entry): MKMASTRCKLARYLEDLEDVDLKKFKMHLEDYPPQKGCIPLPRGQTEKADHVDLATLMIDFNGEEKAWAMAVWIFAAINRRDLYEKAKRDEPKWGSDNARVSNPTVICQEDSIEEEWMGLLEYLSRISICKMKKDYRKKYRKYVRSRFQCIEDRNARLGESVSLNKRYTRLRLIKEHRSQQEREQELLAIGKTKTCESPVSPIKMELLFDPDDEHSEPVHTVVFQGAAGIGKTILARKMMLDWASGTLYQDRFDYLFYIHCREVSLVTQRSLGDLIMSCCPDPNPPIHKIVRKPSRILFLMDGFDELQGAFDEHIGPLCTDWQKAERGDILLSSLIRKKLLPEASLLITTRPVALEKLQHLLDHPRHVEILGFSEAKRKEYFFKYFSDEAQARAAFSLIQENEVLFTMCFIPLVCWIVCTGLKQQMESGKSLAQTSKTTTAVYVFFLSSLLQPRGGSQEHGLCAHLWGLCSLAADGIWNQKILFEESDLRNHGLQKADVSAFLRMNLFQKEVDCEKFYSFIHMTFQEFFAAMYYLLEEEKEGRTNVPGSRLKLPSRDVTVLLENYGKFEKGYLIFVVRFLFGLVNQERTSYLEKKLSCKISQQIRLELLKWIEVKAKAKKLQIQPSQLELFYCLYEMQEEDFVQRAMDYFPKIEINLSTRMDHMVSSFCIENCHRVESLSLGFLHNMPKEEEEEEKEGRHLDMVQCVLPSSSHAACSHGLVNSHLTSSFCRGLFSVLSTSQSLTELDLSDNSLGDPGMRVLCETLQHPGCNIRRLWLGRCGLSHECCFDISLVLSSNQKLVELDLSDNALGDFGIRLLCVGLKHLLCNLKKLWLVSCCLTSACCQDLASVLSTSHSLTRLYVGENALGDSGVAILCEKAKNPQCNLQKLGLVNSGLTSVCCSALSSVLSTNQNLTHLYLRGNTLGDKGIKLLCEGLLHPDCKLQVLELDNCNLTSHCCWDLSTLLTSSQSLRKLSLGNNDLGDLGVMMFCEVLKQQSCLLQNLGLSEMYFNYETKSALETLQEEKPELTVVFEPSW
Summary of the method: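 THP-1 cells (25,000/well) in serum-free RPMI with 1.0 μg/ml LPS, treated with compound (8-point half-log dilution, 10 μM top, 0.1% DMSO), then nigericin 5 μM final. Viability read by resazurin (100 μM final, 1-2 h, 37° C) fluorescence Ex 560/Em 590 nm; IC50 from 4-parameter variable-slope fit.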

[2] = target: T1, NLRP3; assay: Human whole blood IL1β release assay; assay type: cell-based; design: Human whole blood in Li-heparin tubes was obtained from healthy donors; from tissue; host or cells: human whole blood from healthy donors, LPS-primed, nigericin-stimulated; conditions: human whole blood, 1 μg/ml LPS, compound 3 hrs, nigericin 10 μM 1 hr, IL-1β AlphaLisa; read-out: HWB IC50
Experimental: Human Whole Blood IL1β Release Assay
For systemic delivery, the ability to inhibit NLRP3 when the compounds are present within the bloodstream is of great importance. For this reason, the NLRP3 inhibitory activity of a number of compounds in human whole blood was investigated in accordance with the following protocol.
Human whole blood in Li-heparin tubes was obtained from healthy donors from a volunteer donor panel. • 1. Plate out 80 μl of whole blood containing 1 μg/ml of LPS in 96-well, clear bottom cell culture plate (Corning #3585) • 2. Add 10 μl compound (8 points half-log dilution with 10 μM top dose) or vehicle (DMSO 0.1% FAC) to the appropriate wells • 3. Incubate for 3 hrs at 37° C., 5% CO2 • 4. Add 10 μl Nigericin (Sigma #N7143) (10 μM FAC) to all wells • 5. Incubate for 1 hr at 37° C., 5% CO2 • 6. At the end of the incubation period, spin plates at 300 xg for 5 mins to pellet cells and remove 20 μl of supernatant and add to 96-well v-bottom plates for IL-1β analysis (note: these plates containing the supernatants can be stored at −80° C. to be analysed at a later date) • 7. IL-1β was measured according to the manufacturer protocol (Perkin Elmer-AlphaLisa IL-1 Kit AL220F-5000) • 8. IC50 data is fitted to a non-linear regression equation (log inhibitor vs response-variable slope 4-parameters)

Row | IC50 [1] [nM] | IC50 [2] [nM] | SMILES
1 | < 640 | < 10000 | CN(C)C(=O)Cn1ccc(S(=O)(=O)NC(=O)Nc2c3c(cc4c2CCC4)CCC3)n1 [Example 1, 2-(3-(N-((1,2,3,5,6,7-Hexahydro-s-indacen-4-yl)carbamoyl)sulfamoyl)-1H-pyrazol-1-yl)-N,N-dimethylacetamide, sodium salt]
2 | < 640 | < 3200 | CNC(=O)Cn1ccc(S(=O)(=O)NC(=O)Nc2c3c(cc4c2CCC4)CCC3)n1 [Example 2, 2-(3-(N-((1,2,3,5,6,7-Hexahydro-s-indacen-4-yl)carbamoyl)sulfamoyl)-1H-pyrazol-1-yl)-N-methylacetamide]
3 | < 640 | < 1600 | O=C(Nc1c2c(cc3c1CCC3)CCC2)NS(=O)(=O)c1ccn(CCN2CCCC2)n1 [Example 3, N-((1,2,3,5,6,7-Hexahydro-s-indacen-4-yl)carbamoyl)-1-(2-(pyrrolidin-1-yl)ethyl)-1H-pyrazole-3-sulfonamide, sodium salt]
4 | < 640 | < 1600 | CN(C)C1(Cn2ccc(S(=O)(=O)NC(=O)Nc3c4c(cc5c3CCC5)CCC4)n2)CC1 [Example 11, 1-((1-(Dimethylamino)cyclopropyl)methyl)-N-((1,2,3,5,6,7-hexahydro-s-indacen-4-yl)carbamoyl)-1H-pyrazole-3-sulfonamide]
5 | < 2560 | < 1600 | CN1CC(n2ccc(S(=O)(=O)NC(=O)Nc3c4c(cc5c3CCC5)CCC4)n2)C1 [Example 12, N-((1,2,3,5,6,7-Hexahydro-s-indacen-4-yl)carbamoyl)-1-(1-methylazetidin-3-yl)-1H-pyrazole-3-sulfonamide]
6 | < 640 | < 800 | CNCCn1ccc(S(=O)(=O)NC(=O)Nc2c3c(cc4c2CCC4)CCC3)n1 [Example 13, N-((1,2,3,5,6,7-Hexahydro-s-indacen-4-yl)carbamoyl)-1-(2-(methylamino)ethyl)-1H-pyrazole-3-sulfonamide]
7 | < 640 | < 3200 | O=C(Nc1c2c(cc3c1CCC3)CCC2)NS(=O)(=O)c1ccn(C2CNC2)n1 [Example 14, 1-(Azetidin-3-yl)-N-((1,2,3,5,6,7-hexahydro-s-indacen-4-yl)carbamoyl)-1H-pyrazole-3-sulfonamide]
8 | < 160 | < 800 | C[C@@H](Cn1ccc(S(=O)(=O)NC(=O)Nc2c3c(cc4c2CCC4)CCC3)n1)N(C)C [Example 18, (S)-1-(2-(Dimethylamino)propyl)-N-((1,2,3,5,6,7-hexahydro-s-indacen-4-yl)carbamoyl)-1H-pyrazole-3-sulfonamide]
9 | < 640 | < 3200 | CN1CC(Cn2ccc(S(=O)(=O)NC(=O)Nc3c4c(cc5c3CCC5)CCC4)n2)C1 [Example 19, N-((1,2,3,5,6,7-Hexahydro-s-indacen-4-yl)carbamoyl)-1-((1-methylazetidin-3-yl)methyl)-1H-pyrazole-3-sulfonamide]
10 | < 640 | < 800 | CN1CCC[C@@H]1Cn1ccc(S(=O)(=O)NC(=O)Nc2c3c(cc4c2CCC4)CCC3)n1 [Example 21, (R)—N-((1,2,3,5,6,7-Hexahydro-s-indacen-4-yl)carbamoyl)-1-((1-methylpyrrolidin-2-yl)methyl)-1H-pyrazole-3-sulfonamide]
11 | < 2560 | < 3200 | CN(C)CCn1cnc(S(=O)(=O)NC(=O)Nc2c3c(cc4c2CCC4)CCC3)c1 [Example 23, 1-(2-(Dimethylamino)ethyl)-N-((1,2,3,5,6,7-hexahydro-s-indacen-4-yl)carbamoyl)-1H-imidazole-4-sulfonamide]
12 | < 640 | < 3200 | CN(C)CCn1cc(S(=O)(=O)NC(=O)Nc2c3c(cc4c2CCC4)CCC3)nn1 [Example 25, 1-(2-(Dimethylamino)ethyl)-N-((1,2,3,5,6,7-hexahydro-s-indacen-4-yl)carbamoyl)-1H-1,2,3-triazole-4-sulfonamide, sodium salt]
13 | < 160 | < 400 | COc1cc(-c2ccc3c(c2NC(=O)NS(=O)(=O)c2ccn(CCN(C)C)n2)CCC3)ccn1 [Example 26, 1-(2-(Dimethylamino)ethyl)-N-((5-(2-methoxypyridin-4-yl)-2,3-dihydro-1H-inden-4-yl)carbamoyl)-1H-pyrazole-3-sulfonamide]
14 | < 640 | < 800 | CN(C)CCn1cnc(S(=O)(=O)NC(=O)Nc2c3c(cc4c2CCC4)CCC3)n1 [Example 27, 1-(2-(Dimethylamino)ethyl)-N-((1,2,3,5,6,7-hexahydro-s-indacen-4-yl)carbamoyl)-1H-1,2,4-triazole-3-sulfonamide]
15 | < 640 | < 3200 | CN(C)CCn1ccc(S(=O)(=O)NC(=O)Nc2c(-c3cccnc3)cc(F)c3c2CCC3)n1 [Example 28, 1-(2-(Dimethylamino)ethyl)-N-((7-fluoro-5-(pyridin-3-yl)-2,3-dihydro-1H-inden-4-yl)carbamoyl)-1H-pyrazole-3-sulfonamide]
16 | < 40 | < 400 | COc1cc(-c2cc(F)c3c(c2NC(=O)NS(=O)(=O)c2ccn(CCN(C)C)n2)CCC3)ccn1 [Example 29, 1-(2-(Dimethylamino)ethyl)-N-((7-fluoro-5-(2-methoxypyridin-4-yl)-2,3-dihydro-1H-inden-4-yl)carbamoyl)-1H-pyrazole-3-sulfonamide]
17 | < 640 | < 800 | CC(C)c1cc(F)cc(-c2cccnc2)c1NC(=O)NS(=O)(=O)c1ccn(CCN(C)C)n1 [Example 30, 1-(2-(Dimethylamino)ethyl)-N-((4-fluoro-2-isopropyl-6-(pyridin-3-yl)phenyl)carbamoyl)-1H-pyrazole-3-sulfonamide]
18 | < 160 | < 1600 | CC(C)(C#N)n1ccc(S(=O)(=O)NC(=O)Nc2c3c(cc4c2CCC4)CCC3)n1 [Example 33, 1-(2-Cyanopropan-2-yl)-N-((1,2,3,5,6,7-hexahydro-s-indacen-4-yl)carbamoyl)-1H-pyrazole-3-sulfonamide]
19 | < 640 | < 3200 | N#CCn1ccc(S(=O)(=O)NC(=O)Nc2c3c(cc4c2CCC4)CCC3)n1 [Example 34, 1-(Cyanomethyl)-N-((1,2,3,5,6,7-hexahydro-s-indacen-4-yl)carbamoyl)-1H-pyrazole-3-sulfonamide]
20 | < 160 | < 10000 | O=C(Nc1c2c(cc3c1CCC3)CCC2)NS(=O)(=O)c1ccn(Cc2ncco2)n1 [Example 35, N-((1,2,3,5,6,7-Hexahydro-s-indacen-4-yl)carbamoyl)-1-(oxazol-2-ylmethyl)-1H-pyrazole-3-sulfonamide]
21 | < 40 | < 800 | Cn1ccnc1Cn1ccc(S(=O)(=O)NC(=O)Nc2c3c(cc4c2CCC4)CCC3)n1 [Example 118, N-((1,2,3,5,6,7-Hexahydro-s-indacen-4-yl)carbamoyl)-1-((1-methyl-1H-imidazol-2-yl)methyl)-1H-pyrazole-3-sulfonamide]
22 | < 640 | < 1600 | CN(C)C1(c2cc(S(=O)(=O)NC(=O)Nc3c4c(cc5c3CCC5)CCC4)nn2C)COC1 [Example 122, 5-(3-(Dimethylamino)oxetan-3-yl)-N-((1,2,3,5,6,7-hexahydro-s-indacen-4-yl)carbamoyl)-1-methyl-1H-pyrazole-3-sulfonamide]
23 | < 640 | < 3200 | COCCN(C)Cc1cc(S(=O)(=O)NC(=O)Nc2c3c(cc4c2CCC4)CCC3)nn1C [Example 126, N-((1,2,3,5,6,7-Hexahydro-s-indacen-4-yl)carbamoyl)-5-(((2-methoxyethyl)(methyl)amino)methyl)-1-methyl-1H-pyrazole-3-sulfonamide, sodium salt]
24 | < 160 | < 800 | CC(=O)N(C)Cc1cc(S(=O)(=O)NC(=O)Nc2c3c(cc4c2CCC4)CCC3)nn1C(C)C [Example 129, N-((3-(N-((1,2,3,5,6,7-Hexahydro-s-indacen-4-yl)carbamoyl)sulfamoyl)-1-isopropyl-1H-pyrazol-5-yl)methyl)-N-methylacetamide]
25 | < 2560 | < 1600 | CC(C)c1cccc(C(C)C)c1NC(=O)NS(=O)(=O)c1cc(C(=O)N2CC(F)C2)n(C)n1 [Example 139, N-((2,6-Diisopropylphenyl)carbamoyl)-5-(3-fluoroazetidine-1-carbonyl)-1-methyl-1H-pyrazole-3-sulfonamide, sodium salt]

Row | SMILES | IC50 [1] [nM] | IC50 [2] [nM]
26 | CNC(=O)c1cc(S(=O)(=O)NC(=O)Nc2c(C(C)C)cc(Cl)cc2C(C)C)nn1C [Example 132, 3-(N-((4-chloro-2,6-diisopropylphenyl)carbamoyl)sulfamoyl)-N,1-dimethyl-1H-pyrazole-5-carboxamide] | < 640 | < 3200
